Measurements taken from patent publication US20110294732A1, “ERYTHROPOLETIN COMPLEMENTATION OR REPLACEMENT” (Universite De Strasbourg, priority 2007, published 2011).
Values joined by “and” are separate entries in the source; they are usually repeats but may differ in a detail not shown here. Identical values can stand only once. “Also recorded” adds a separate entry of the source.

Legend:
whole blood [1] = assay: In vitro P50 of whole blood after incubation with effector, mouse; assay type: cell-based
Description: (§1) For the in vitro experiments, ITPP was dissolved in deionized water, pH was adjusted to pH 7 and, for incubation with whole blood, the osmolarity of the ITPP solutions was adjusted with glucose to 270-297 mOsM. Mixtures of hemoglobin and ITPP were measured with a HEMOX analyzer (PD Marketing, London) immediately after mixing. Red blood cells were incubated with ITPP for 1 hour at 37° C. Following incubation, the cells were washed 3 times with Bis-Tris-buffer (pH=7.0) and then used for P50 measurement.
(§2) ITPP was tested along with a cholesteroyl derivative (here designated as kf96) (both at 60 mM) as effectors for P50 shifts in whole blood of three species: human, mouse and pig. As usual, pHs for the compound-solutions were adjusted to ca. 7.0, osmolarities for both solutions were determined (325-373 mOsM) prior to treatment with the effectors, and whole blood volumes at 1:1 ratios were incubated.

whole blood [2] = assay: In vitro P50 of whole blood after incubation with effector, human; assay type: cell-based; settings: 60 mM
Description: as §1, §2

RBCs = assay: Lysis of RBCs after in vitro incubation with effector; assay type: cell-based, human, mouse and pig
[3] = Tolerability and toxicity of intravenous injection in piglets; assay type: in vivo
Description: An in vivo experiment was performed on one 8 week-old normal piglet (body weight: 17 kg). The piglet was anesthesized with 5% Isoflurane, 0.7 L/min N2O and 2.0 L/min O2 for 20-30 minutes, when ITPP was injected, or blood was taken from the ear vein, respectively. The compound injected intravenous at a concentration of 27 g ITPP/100 ml water (volume injected: 63 ml, pH 6.5, containing 17 g ITPP=1 g/l kg body weight) was not harmful to the animal, when injected into the piglet's ear vein over at least 10 minutes.
Intravenous injection of 1 g ITPP/kg body weight caused a significant right shift of the P50-value (up to 20%) in porcine RBCs. An almost saturated ITPP solution, pH 6.7, was injected intravenously into two piglets (both of ca. 18 kg body weight) (27 g ITPP/100 ml=1.5 g/kg body weight) over 20 minutes.
Blood was taken from the heart of the dead animals for determination of blood counts as well as the amount of sodium, potassium and calcium in the sera. All numbers of blood cells (hematocrit, white blood cells etc.) were halved. The amount of potassium and calcium was normal, while sodium was doubled (before injection: 120-140 mmol/L; after injection: 245 mmol/L). Apparently, the large amount of sodium in that form of ITPP (6 Na^+/molecule) caused the death of the animals. It appears that up to 1 g ITPP per kg body weight can be injected intravenously, (if injected slowly) without harmful effects for the animals. […] A second piglet was also injected with ITPP at the 1 g/kg concentration, after 2 piglets had died after iv injection of 1.2 g ITPP (or even more) per kg body weight. […] Starting with day 3 after injection of the allosteric effector, the number of reticulocytes increased by about 3% for a period of 14 days.

circulating RBCs = assay: P50 shift of circulating RBCs after ip injection; assay type: in vivo, C57B1/6 mice; settings: for P50 Shift %, 2 h, Mean +/- SD / P50 Shift %, 24 h, Mean +/- SD / P50 Shift %, 2 h / P50 Shift %, 24 h: ip; for P50 Shift %, 2 h, Mean +/- SD / P50 Shift %, 24 h, Mean +/- SD: 5 animals; for P50 Shift %, 2 h / P50 Shift %, 24 h: single animal
Description: (§3) Blood from C57B1/6 mice collected 2 hrs and 1 day after injection of 45, 60, 120 and 150 mM solutions of ITPP was measured for P50-shifts as reported. […] No animal died or seemed to suffer from the compound.

[4] = Tolerability of ITPP injection in mice; assay type: in vivo, C57B1/6 mice
Description: as §3

Effort capacity test = assay type: in vivo, normal wild-type mice; settings: normal animals, maximum
Description: The effort capacity of normal animals may be enhanced by up to 100% by ITPP administration, since more oxygen can be delivered to the working muscle.

[5] = Blood counts of mice after oral ingestion; assay type: in vivo; settings: single mouse, oral in water for 4 days; day 0 count 8.9-11.8

O=P1(O)OC2C3OP(=O)(O)OP(=O)(O)OC3C3OP(=O)(O)OP(=O)(O)OC3C2OP(=O)(O)O1 (stereo not drawn) [ITPP, inositol-tripyrophosphate]
P50 increase, % (ITPP) (whole blood [1]; mouse whole blood, 60 mM): 29% | P50 mm Hg effector ITPP (whole blood [1]; mouse whole blood, 60 mM, control 36.7): 47.4 mm Hg | shift of the P50 value to higher PO2 (whole blood [1]; murine whole blood): up to 40% | P50 increase, % (ITPP) (whole blood [2]): 39% | P50 mm Hg effector ITPP (whole blood [2]; control 22.1): 30.8 mm Hg | lysis of RBCs (RBCs): never occurred; also recorded: no lysis of RBCs was observed | harmfulness of intravenous injection ([3]; 1 g/kg body weight, injected slowly over at least 10 minutes): not harmful | amount of potassium and calcium in the sera ([3]; after lethal iv injection): normal | sodium in the sera after injection ([3]; after lethal iv injection, before injection 120-140): 245 mmol/L | numbers of blood cells (hematocrit, white blood cells etc.) in the dead animals ([3]; heart blood after lethal iv injection): halved | amount that can be injected intravenously without harmful effects ([3]; if injected slowly): up to 1 g ITPP per kg body weight | mortality ([3]; iv, almost saturated solution 27 g/100 ml, intended 1.5 g/kg over 20 minutes, received <1.3 g/kg): Both piglets died; also recorded: killed the animals | time at which the P50 shift appears after inoculation (circulating RBCs; ip inoculation): 2 h | P50 Shift %, 2 h, Mean +/- SD (circulating RBCs; 45 mM): 11.8 +/− 1.16% | P50 Shift %, 24 h, Mean +/- SD (circulating RBCs; 45 mM): 13.6 +/− 1.02% | P50 Shift %, 2 h (circulating RBCs; 45 mM): 10% and 13% (2×) and 12% and 11% | P50 Shift %, 24 h (circulating RBCs; 45 mM): 8% | P50 Shift %, 2 h, Mean +/- SD (circulating RBCs; 60 mM): 16.9 +/− 3.48% | P50 Shift %, 24 h, Mean +/- SD (circulating RBCs; 60 mM): 17.2 +/− 2.1% | P50 Shift %, 2 h (circulating RBCs; 60 mM): 12% and 14% and 17% and 21% and 20.5% | P50 Shift %, 24 h (circulating RBCs; 60 mM): 14% and 16% and 17% and 20% and 19% | P50 Shift %, 2 h, Mean +/- SD (circulating RBCs; 120 mM): 26.0 +/− 2.28% | P50 Shift %, 24 h, Mean +/- SD (circulating RBCs; 120 mM): 24.8 +/− 2.7% | P50 Shift %, 2 h (circulating RBCs; 120 mM): 28% and 29% and 24% and 26% and 23% | P50 Shift %, 24 h (circulating RBCs; 120 mM): 28% (2×) and 22% (2×) and 24% | P50 Shift %, 2 h, Mean +/- SD (circulating RBCs; 150 mM): 27.0 +/− 1.78% | P50 Shift %, 24 h, Mean +/- SD (circulating RBCs; 150 mM): 25.8 +/− 2.78% | P50 Shift %, 2 h (circulating RBCs; 150 mM): 26% (2×) and 28% and 30% and 25% | P50 Shift %, 24 h (circulating RBCs; 150 mM): 25% and 26% and 31% and 24% and 23% | tolerability ([4]; ip, concentrations up to 150 mM, no animal died): well tolerated | tolerability ([4]; mice, concentration of 120 mM): well tolerated | enhancement of the effort capacity (Effort capacity test): up to 100% | RBC × 10^6/mm^3 [5]: 9.35 10^6/mm^3 and 8.60 10^6/mm^3 and 8.95 10^6/mm^3 (2×) and 8.88 10^6/mm^3 and 8.70 10^6/mm^3 and 8.73 10^6/mm^3 and 7.65 10^6/mm^3 and 7.80 10^6/mm^3
